Results taken from PubChem BioAssay (NCI).
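Exposure lasted 48 hours, with cells grown in 96-well plates and compounds tested at five concentrations. Here, GI50 denotes the concentration required for 50% inhibition of growth. Definition used: TGI = concentration required for complete inhibition of growth.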

Tests used:
Assay in all cases: DTP human tumour cell line panel, 48 h
HOP-92 NSCLC = tested on: HOP-92 NSCLC
OVCAR-4 ovarian = tested on: OVCAR-4 ovarian
SN12C renal = tested on: SN12C renal
LOX IMVI melanoma = tested on: LOX IMVI melanoma
SNB-19 CNS = tested on: SNB-19 CNS
SK-MEL-2 melanoma = tested on: SK-MEL-2 melanoma
UO-31 renal = tested on: UO-31 renal
A549 NSCLC = tested on: A549 NSCLC
NCI-H226 lung = tested on: NCI-H226 lung
HT29 colon = tested on: HT29 colon
SF-268 CNS = tested on: SF-268 CNS
UACC-62 melanoma = tested on: UACC-62 melanoma
PC-3 prostate = tested on: PC-3 prostate
HCC-2998 colon = tested on: HCC-2998 colon
T-47D breast = tested on: T-47D breast
NCI-H23 lung = tested on: NCI-H23 lung
SK-OV-3 ovarian = tested on: SK-OV-3 ovarian
OVCAR-3 ovarian = tested on: OVCAR-3 ovarian
TK-10 renal = tested on: TK-10 renal
CCRF-CEM leukemia = tested on: CCRF-CEM leukemia
SK-MEL-5 melanoma = tested on: SK-MEL-5 melanoma
HL-60(TB) leukemia = tested on: HL-60(TB) leukemia
MOLT-4 leukemia = tested on: MOLT-4 leukemia
NCI-H460 lung = tested on: NCI-H460 lung
HOP-62 NSCLC = tested on: HOP-62 NSCLC
EKVX NSCLC = tested on: EKVX NSCLC
HCT-116 colon = tested on: HCT-116 colon
NCI/ADR-RES ovarian = tested on: NCI/ADR-RES ovarian
MCF7 breast = tested on: MCF7 breast
MDA-N = tested on: MDA-N
K-562 leukemia = tested on: K-562 leukemia
A498 renal = tested on: A498 renal
OVCAR-8 ovarian = tested on: OVCAR-8 ovarian
SK-MEL-28 melanoma = tested on: SK-MEL-28 melanoma
MDA-MB-231 breast = tested on: MDA-MB-231 breast
MDA-MB-435 = tested on: MDA-MB-435
SW-620 colon = tested on: SW-620 colon
U251 CNS = tested on: U251 CNS
HCT-15 colon = tested on: HCT-15 colon
RXF 393 renal = tested on: RXF 393 renal
DU-145 prostate = tested on: DU-145 prostate
OVCAR-5 ovarian = tested on: OVCAR-5 ovarian
M14 melanoma = tested on: M14 melanoma
SF-295 CNS = tested on: SF-295 CNS
NCI-H522 lung = tested on: NCI-H522 lung
COLO 205 colon = tested on: COLO 205 colon
CAKI-1 renal = tested on: CAKI-1 renal
RPMI-8226 leukemia = tested on: RPMI-8226 leukemia
ACHN renal = tested on: ACHN renal
KM12 colon = tested on: KM12 colon
SF-539 CNS = tested on: SF-539 CNS
MALME-3M melanoma = tested on: MALME-3M melanoma
UACC-257 melanoma = tested on: UACC-257 melanoma
IGROV1 ovarian = tested on: IGROV1 ovarian
786-0 renal = tested on: 786-0 renal
HS 578T breast = tested on: HS 578T breast
BT-549 breast = tested on: BT-549 breast
SNB-75 CNS = tested on: SNB-75 CNS
SR leukemia = tested on: SR leukemia

Cc1cn(CC2=NCC(O)CN2)c(=O)[nH]c1=O (centres undefined)
TGI (HOP-92 NSCLC): > 100 µM
TGI (OVCAR-4 ovarian): > 100 µM
TGI (SN12C renal): > 100 µM
TGI (LOX IMVI melanoma): > 100 µM
TGI (SNB-19 CNS): > 100 µM
TGI (SK-MEL-2 melanoma): > 100 µM
TGI (UO-31 renal): > 100 µM
TGI (A549 NSCLC): > 100 µM
TGI (NCI-H226 lung): > 100 µM
TGI (HT29 colon): > 100 µM
TGI (SF-268 CNS): > 100 µM
TGI (UACC-62 melanoma): > 100 µM
TGI (PC-3 prostate): > 100 µM
TGI (HCC-2998 colon): > 100 µM
TGI (T-47D breast): > 100 µM
TGI (NCI-H23 lung): > 100 µM
TGI (SK-OV-3 ovarian): > 100 µM
TGI (OVCAR-3 ovarian): > 100 µM
TGI (TK-10 renal): > 100 µM
TGI (CCRF-CEM leukemia): > 100 µM
TGI (SK-MEL-5 melanoma): > 100 µM
TGI (HL-60(TB) leukemia): > 100 µM
TGI (MOLT-4 leukemia): > 100 µM
TGI (NCI-H460 lung): > 100 µM
TGI (HOP-62 NSCLC): > 100 µM
TGI (EKVX NSCLC): > 100 µM
TGI (HCT-116 colon): > 100 µM
TGI (NCI/ADR-RES ovarian): > 100 µM
TGI (MCF7 breast): > 100 µM
TGI (MDA-N): > 100 µM
TGI (K-562 leukemia): > 100 µM
TGI (A498 renal): > 100 µM
TGI (OVCAR-8 ovarian): > 100 µM
TGI (SK-MEL-28 melanoma): > 100 µM
TGI (MDA-MB-231 breast): > 100 µM
TGI (MDA-MB-435): > 100 µM
TGI (SW-620 colon): > 100 µM
TGI (U251 CNS): > 100 µM
TGI (HCT-15 colon): > 100 µM
TGI (RXF 393 renal): > 100 µM
TGI (DU-145 prostate): > 100 µM
TGI (OVCAR-5 ovarian): > 100 µM
TGI (M14 melanoma): > 100 µM
TGI (SF-295 CNS): > 100 µM
TGI (NCI-H522 lung): > 100 µM
TGI (COLO 205 colon): > 100 µM
TGI (CAKI-1 renal): > 100 µM
TGI (RPMI-8226 leukemia): > 100 µM
TGI (ACHN renal): > 100 µM
TGI (KM12 colon): > 100 µM
TGI (SF-539 CNS): > 100 µM
TGI (MALME-3M melanoma): > 100 µM
TGI (UACC-257 melanoma): > 100 µM
TGI (IGROV1 ovarian): > 100 µM
TGI (786-0 renal): > 100 µM

COc1cc(Nc2cc(O)c3c(=O)cc(-c4ccccc4)oc3c2)cc(OC)c1
GI50 (HOP-92 NSCLC): 0.944 µM
TGI (HOP-92 NSCLC): 17.7 µM
GI50 (OVCAR-4 ovarian): 8.61 µM
TGI (OVCAR-4 ovarian): 41.9 µM
GI50 (SN12C renal): 0.736 µM
TGI (SN12C renal): 75.5 µM
GI50 (LOX IMVI melanoma): 0.581 µM
TGI (LOX IMVI melanoma): > 100 µM
GI50 (SNB-19 CNS): 0.533 µM
TGI (SNB-19 CNS): 22.8 µM
GI50 (SK-MEL-2 melanoma): 0.537 µM
TGI (SK-MEL-2 melanoma): 40.4 µM
GI50 (UO-31 renal): 0.763 µM
TGI (UO-31 renal): 30.7 µM
GI50 (A549 NSCLC): 0.788 µM
TGI (A549 NSCLC): 97.3 µM
GI50 (NCI-H226 lung): 2.57 µM
TGI (NCI-H226 lung): 48 µM
GI50 (HT29 colon): 3.33 µM
TGI (HT29 colon): > 36.9 µM
GI50 (SF-268 CNS): 0.909 µM
TGI (SF-268 CNS): 30.9 µM
GI50 (UACC-62 melanoma): 0.387 µM
TGI (UACC-62 melanoma): > 37.4 µM
GI50 (PC-3 prostate): 0.815 µM
TGI (PC-3 prostate): > 52.1 µM
GI50 (HCC-2998 colon): 2.31 µM
TGI (HCC-2998 colon): > 54 µM
GI50 (T-47D breast): 0.251 µM
TGI (T-47D breast): > 100 µM
GI50 (HS 578T breast): 0.338 µM
GI50 (NCI-H23 lung): 0.922 µM
TGI (NCI-H23 lung): 40 µM
GI50 (SK-OV-3 ovarian): 0.548 µM
TGI (SK-OV-3 ovarian): 18.6 µM
GI50 (OVCAR-3 ovarian): 0.274 µM
TGI (OVCAR-3 ovarian): 1.64 µM
GI50 (TK-10 renal): 4.94 µM
TGI (TK-10 renal): 46.6 µM
GI50 (CCRF-CEM leukemia): 0.411 µM
TGI (CCRF-CEM leukemia): > 100 µM
GI50 (SK-MEL-5 melanoma): 0.169 µM
TGI (SK-MEL-5 melanoma): 9.97 µM
GI50 (HL-60(TB) leukemia): 0.355 µM
GI50 (BT-549 breast): 0.651 µM
TGI (BT-549 breast): > 52.3 µM
GI50 (MOLT-4 leukemia): 0.595 µM
TGI (MOLT-4 leukemia): > 100 µM
GI50 (NCI-H460 lung): 0.39 µM
TGI (NCI-H460 lung): > 35.3 µM
GI50 (HOP-62 NSCLC): 0.795 µM
TGI (HOP-62 NSCLC): 20.9 µM
GI50 (EKVX NSCLC): 0.769 µM
TGI (EKVX NSCLC): > 100 µM
GI50 (HCT-116 colon): 0.407 µM
TGI (HCT-116 colon): > 100 µM
GI50 (NCI/ADR-RES ovarian): 0.437 µM
TGI (NCI/ADR-RES ovarian): 25 µM
GI50 (MCF7 breast): 0.0357 µM
TGI (MCF7 breast): > 100 µM
GI50 (K-562 leukemia): 0.311 µM
TGI (K-562 leukemia): > 100 µM
GI50 (A498 renal): 0.351 µM
TGI (A498 renal): 9.03 µM
GI50 (OVCAR-8 ovarian): 0.9 µM
TGI (OVCAR-8 ovarian): 23.9 µM
GI50 (SK-MEL-28 melanoma): 2.84 µM
TGI (SK-MEL-28 melanoma): > 100 µM
GI50 (SNB-75 CNS): 0.193 µM
TGI (SNB-75 CNS): 0.75 µM
GI50 (MDA-MB-231 breast): 0.964 µM
TGI (MDA-MB-231 breast): 18.4 µM
GI50 (MDA-MB-435): 0.147 µM
TGI (MDA-MB-435): 0.498 µM
GI50 (SW-620 colon): 0.377 µM
TGI (SW-620 colon): > 100 µM
GI50 (U251 CNS): 0.484 µM
TGI (U251 CNS): 18.3 µM
GI50 (HCT-15 colon): 0.104 µM
TGI (HCT-15 colon): > 100 µM
GI50 (RXF 393 renal): 0.329 µM
TGI (RXF 393 renal): 1.83 µM
GI50 (DU-145 prostate): 0.476 µM
TGI (DU-145 prostate): 20.9 µM
GI50 (OVCAR-5 ovarian): 1.29 µM
TGI (OVCAR-5 ovarian): > 47.5 µM
GI50 (M14 melanoma): 0.466 µM
TGI (M14 melanoma): > 100 µM
GI50 (SF-295 CNS): 0.389 µM
TGI (SF-295 CNS): 8.33 µM
GI50 (NCI-H522 lung): 0.203 µM
TGI (NCI-H522 lung): 4.39 µM
GI50 (SR leukemia): 0.253 µM
TGI (SR leukemia): > 100 µM
GI50 (COLO 205 colon): 4.68 µM
TGI (COLO 205 colon): > 100 µM
GI50 (CAKI-1 renal): 0.335 µM
TGI (CAKI-1 renal): 16.8 µM
GI50 (RPMI-8226 leukemia): 0.471 µM
TGI (RPMI-8226 leukemia): > 100 µM
GI50 (ACHN renal): 0.628 µM
TGI (ACHN renal): > 100 µM
GI50 (KM12 colon): 0.282 µM
TGI (KM12 colon): > 39.2 µM
GI50 (SF-539 CNS): 0.338 µM
TGI (SF-539 CNS): 1.93 µM
GI50 (MALME-3M melanoma): 0.754 µM
TGI (MALME-3M melanoma): > 100 µM
GI50 (UACC-257 melanoma): 39.1 µM
TGI (UACC-257 melanoma): > 100 µM
GI50 (IGROV1 ovarian): 0.409 µM
TGI (IGROV1 ovarian): 32.4 µM
GI50 (786-0 renal): 1.34 µM
TGI (786-0 renal): 21.9 µM
